Assay [1] deals with 9,11-methanoepoxy PGH2 induced platelet aggregation. The experiment in a line: Effect on 9,11-methanoepoxy PGH2 (U46619) induced platelet aggregation ex vivo. Format: in vivo, male Hartley strain guinea-pigs. Particulars: Cavia porcellus, guinea-pig, oral administration 0.032 mg/kg, 1 hour before blood collection, U46619 0.5 μM. An excerpt:
(§1) In the following tests, the used 9, 11-azo PGH2 and 9,11-methanoepoxy PGH2 (U46619) are characterized pharmacologically as TXA2 mimetic agents and widely used for evaluating TXA2 antagonism of test compounds (for example, vide The Journal of Pharmacology and Experimental Therapeutics Vol. 234, pp 435-441).
Test 2. (Effect on 9,11-methanoepoxy PGH2 induced platelet aggregation ex vivo)
In the ex vivo experiments, male Hartley strain guinea-pigs weighing about 300 g were used after overnight fasting. Animals received an oral administration of test compound (0.032 mg/kg) or vehicle 1 hour before the blood collection from abdominal artery PRP was prepared as described above, and platelet aggregation was induced by adding 5 μl of 9,11-methanoepoxy PGH2 (U46619, 0.5 μM) to 250 μl of PRP.

Assay [2] has as its system 9,11-azo PGH2 induced aggregation of rabbit platelet. Nature of the assay: Effect on 9,11-azo PGH2 induced aggregation of rabbit platelet in vitro. As to conditions: Oryctolagus cuniculus; rabbit platelet rich plasma, in vitro, 9,11-azo PGH2 (final 1.0 μM), 37° C.; read-out: IC50 (Inhibition concentration of platelet aggregation by 50%). It is filed as cell-based.
From the text: as §1
Test 1 (Effect on 9,11-azo PGH2 induced aggregation of rabbit platelet in vitro) (a) Test method
In the in vitro experiments, the blood was collected from the carotid artery of rabbits into plastic vessels containing 0.1 volume of 3.8% aqueous sodium citrate. Platelet rich plasma (PRP) was prepared by centrifugation at 150 g for 15 minutes. Platelet aggregation was investigated using the turbidometric method with an aggregometer (NKK HEMATRACER 1). To the 225 μl of PRP, 25 μl of test compound solution was added, and then stirred at 1000 rpm for 2 minutes at 37° C. To the solution, 5 μl of 9,11-azo PGH2 (final 1.0 μM) was added as an aggregating inducer. IC50 (Inhibition concentration of platelet aggregation by 50%) were graphically determined.

Where a name gives a salt, the structure may show the parent alone.

The compound `O=C(O)CCCC=C[C@@H]1C[C@@H](NS(=O)(=O)c2ccc(Cl)cc2)CN1S(=O)(=O)c1ccc(Cl)cc1` [Test compound (1), Sodium salt of (2S,4R)-2-[(E and Z)-5-carboxy-1-pentenyl]-1-(4-chlorophenylsulfonyl)-4-(4-chlorophenylsulfonylamino)pyrrolidine] gave an inhibition at 0.032 mg/kg in assay [1] of 94.2%. In addition, the IC50 in assay [2] worked out at 85 nM.

Compound `O=C(O)CCC/C=C\[C@@H]1C[C@@H](NS(=O)(=O)c2ccc(Cl)cc2)CN1S(=O)(=O)c1ccc(Cl)cc1` [Test compound (2), (2S,4R)-2-[(Z)-5-Carboxy-1-pentenyl]-1-(4-chlorophenylsulfonyl)-4-(4-chlorophenylsulfonylamino)pyrrolidine] yielded an inhibition at 0.032 mg/kg in assay [1] of 100%. Moreover, the IC50 in assay [2] worked out at 55 nM.

As usually defined, the inhibition is the relative decrease from the control value, in per cent. A high value points to a response far below the control.
